# Columns and labels:
# [1] = Kinetic solubility of the compound at pH 1.2; format: physicochemical; settings: buffer, read-out: Kinetic_solubility
# [2] = biological target: T1, Sodium channel protein type 9 subunit alpha (Homo sapiens, UniProt Q15858); test: Inhibition of Nav1.7 (unknown origin) expressed in CHO cells after 45 mins by FLIPR assay; format: cell-based
# [3] = Kinetic solubility of the compound at pH 6.8; format: physicochemical; settings: buffer, read-out: Kinetic_solubility
# in vitro [4] = settings: human, liver microsomes
# Description: Metabolic stability in human liver microsomes assessed as compound remaining at 1 uM after 30 mins
# in vitro [5] = settings: rat, liver microsomes
# Description: Metabolic stability in rat liver microsomes assessed as compound remaining at 1 uM after 30 mins
# [6] = biological target: T1, Sodium channel protein type 9 subunit alpha; test: Inhibition of Nav1.7 (unknown origin) by electrophysiological assay
# T1 sequence (Q15858 whole entry): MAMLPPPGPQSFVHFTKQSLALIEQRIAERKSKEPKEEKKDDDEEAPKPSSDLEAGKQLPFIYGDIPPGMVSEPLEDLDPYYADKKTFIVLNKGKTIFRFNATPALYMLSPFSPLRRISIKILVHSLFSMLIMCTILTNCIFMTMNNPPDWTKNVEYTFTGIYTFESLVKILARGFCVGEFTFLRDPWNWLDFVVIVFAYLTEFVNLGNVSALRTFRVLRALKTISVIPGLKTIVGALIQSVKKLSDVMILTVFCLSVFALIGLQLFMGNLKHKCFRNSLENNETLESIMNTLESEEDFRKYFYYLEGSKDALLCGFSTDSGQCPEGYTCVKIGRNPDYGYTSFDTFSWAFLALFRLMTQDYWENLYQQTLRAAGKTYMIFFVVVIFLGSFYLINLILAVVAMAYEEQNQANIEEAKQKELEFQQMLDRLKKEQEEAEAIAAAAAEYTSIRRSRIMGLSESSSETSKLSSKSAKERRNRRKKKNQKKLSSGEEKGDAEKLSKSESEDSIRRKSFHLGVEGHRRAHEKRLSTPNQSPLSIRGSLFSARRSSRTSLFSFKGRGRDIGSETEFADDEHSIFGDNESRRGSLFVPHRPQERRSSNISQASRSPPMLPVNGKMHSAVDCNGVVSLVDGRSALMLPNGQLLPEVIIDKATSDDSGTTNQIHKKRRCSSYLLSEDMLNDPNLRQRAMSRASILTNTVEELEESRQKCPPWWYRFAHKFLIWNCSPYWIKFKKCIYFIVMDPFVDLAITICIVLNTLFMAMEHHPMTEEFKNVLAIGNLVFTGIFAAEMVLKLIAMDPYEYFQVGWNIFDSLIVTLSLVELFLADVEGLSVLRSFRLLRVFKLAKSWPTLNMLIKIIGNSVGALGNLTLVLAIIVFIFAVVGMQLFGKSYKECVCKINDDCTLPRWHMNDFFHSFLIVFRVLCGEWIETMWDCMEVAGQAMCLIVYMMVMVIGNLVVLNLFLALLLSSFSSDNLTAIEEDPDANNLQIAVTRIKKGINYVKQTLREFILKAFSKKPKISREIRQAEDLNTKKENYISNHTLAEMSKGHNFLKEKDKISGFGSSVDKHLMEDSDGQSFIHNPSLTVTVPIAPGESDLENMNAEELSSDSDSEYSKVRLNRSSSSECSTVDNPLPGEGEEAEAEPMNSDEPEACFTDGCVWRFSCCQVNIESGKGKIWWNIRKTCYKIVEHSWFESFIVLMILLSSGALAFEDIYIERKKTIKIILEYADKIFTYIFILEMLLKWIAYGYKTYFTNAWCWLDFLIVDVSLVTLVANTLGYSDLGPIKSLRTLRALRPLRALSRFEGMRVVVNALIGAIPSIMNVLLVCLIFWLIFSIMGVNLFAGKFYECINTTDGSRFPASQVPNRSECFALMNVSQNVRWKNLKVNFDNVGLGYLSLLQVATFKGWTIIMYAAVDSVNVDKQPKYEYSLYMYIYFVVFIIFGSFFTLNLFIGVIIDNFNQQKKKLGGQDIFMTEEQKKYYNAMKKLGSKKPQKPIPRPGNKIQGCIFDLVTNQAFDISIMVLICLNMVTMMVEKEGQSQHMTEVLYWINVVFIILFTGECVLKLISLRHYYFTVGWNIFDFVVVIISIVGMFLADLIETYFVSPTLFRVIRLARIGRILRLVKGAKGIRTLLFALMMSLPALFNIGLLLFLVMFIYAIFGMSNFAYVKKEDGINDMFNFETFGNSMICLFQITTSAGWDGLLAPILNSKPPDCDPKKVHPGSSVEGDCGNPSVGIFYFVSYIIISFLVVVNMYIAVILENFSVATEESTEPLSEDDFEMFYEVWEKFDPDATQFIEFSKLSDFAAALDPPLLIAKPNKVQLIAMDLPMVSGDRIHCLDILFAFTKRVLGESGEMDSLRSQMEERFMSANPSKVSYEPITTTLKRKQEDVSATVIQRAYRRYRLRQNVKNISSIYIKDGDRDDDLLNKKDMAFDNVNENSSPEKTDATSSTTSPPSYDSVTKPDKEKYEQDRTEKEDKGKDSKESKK
solubility kinetic [1],IC50 [2],solubility kinetic [3],"remaining at 0.5 h, 1 µM (in vitro [4])","remaining at 0.5 h, 1 µM (in vitro [5])",Ki [6],Structure (SMILES)
0.2 µM,–,–,–,–,–,NC(=O)c1cccc(-c2ccc3c(c2)CCc2cc(Cl)ccc2N3)n1
0.2 µM,> 10000 nM,–,–,–,–,CCN1c2ccc(Cl)cc2CCc2cc(-c3cccc(C(N)=O)n3)ccc21
12 µM,–,7 µM,–,–,–,CC(=O)N1c2ccc(Cl)cc2CCc2cc(-c3cccc(C(N)=O)n3)ccc21
75 µM,–,74 µM,38%,37%,–,NC(=O)N1c2ccccc2C=Cc2ccccc21 [CARBAMAZEPINE]

# Second part, the molecule before the results:
Structure (SMILES),solubility kinetic [1],IC50 [2],solubility kinetic [3],"remaining at 0.5 h, 1 µM (in vitro [4])","remaining at 0.5 h, 1 µM (in vitro [5])",Ki [6]
CN1c2ccc(-c3cccc([C@H](O)CO)n3)cc2CCc2cc(C(F)(F)F)ccc21,60 µM,–,0.1 µM,79%,72%,–
OC[C@@H](O)c1cccc(-c2ccc3c(c2)CNc2cc(C(F)(F)F)ccc2O3)n1,80 µM,–,12 µM,–,–,–
CN1Cc2cc(-c3cccc([C@H](O)CO)n3)ccc2Oc2ccc(C(F)(F)F)cc21,70 µM,–,0.4 µM,98%,94%,440 nM
NC(=O)CN1Cc2cc(-c3cccc([C@H](O)CO)n3)ccc2Oc2ccc(C(F)(F)F)cc21,80 µM,1800 nM,1 µM,83%,91%,–
CN1Cc2cc(C(F)(F)F)ccc2Oc2ccc(-c3cccc([C@H](O)CO)n3)cc21,73 µM,–,6 µM,91%,74%,560 nM
CN1Cc2cc(-c3cccc([C@H](O)[C@@H](O)C(N)=O)n3)ccc2Oc2ccc(C(F)(F)F)cc21,70 µM,–,0.8 µM,94%,93%,920 nM

# — ChEMBL document CHEMBL3580627, “Dibenzazepines and dibenzoxazepines as sodium channel blockers” (Bioorg Med Chem Lett, 2014)
